pIC50: −log10 of the molar value.
Columns and labels:
Format in all cases: biochemical
HER-2 = molecular target: T1, HER-2 (Homo sapiens, UniProt P04626); assay: HER-2 Kinase Assay; settings: for pIC50: value in parentheses; for inhibition at 1 µM: test concentration of 1 μM
T1 construct: His6 with thrombin site (N); purchased Proqinase (Freiburg, Germany)
Outline: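 Read-out was scintillation counting of 33P incorporated into biotinylated polyGluTyr captured on streptavidin plates. Reactions ran 1 h at 30 °C with GST-fused HER-2 residues 679–1255, 1 μM ATP, Mn2+ and Mg2+ at pH 7.5; data given as percent inhibition at 1 μM, with IC50 where determined.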

c-Src kinase (human) = molecular target: T2, c-Src kinase (human) (Homo sapiens, UniProt P12931); assay: c-Src Kinase Assay; settings: test concentration of 2 μM; multiple values are separate assay results
T2 construct: purchased Upstate Biotechnology, Lake Placid, N.Y
T2 sequence (P12931 whole entry): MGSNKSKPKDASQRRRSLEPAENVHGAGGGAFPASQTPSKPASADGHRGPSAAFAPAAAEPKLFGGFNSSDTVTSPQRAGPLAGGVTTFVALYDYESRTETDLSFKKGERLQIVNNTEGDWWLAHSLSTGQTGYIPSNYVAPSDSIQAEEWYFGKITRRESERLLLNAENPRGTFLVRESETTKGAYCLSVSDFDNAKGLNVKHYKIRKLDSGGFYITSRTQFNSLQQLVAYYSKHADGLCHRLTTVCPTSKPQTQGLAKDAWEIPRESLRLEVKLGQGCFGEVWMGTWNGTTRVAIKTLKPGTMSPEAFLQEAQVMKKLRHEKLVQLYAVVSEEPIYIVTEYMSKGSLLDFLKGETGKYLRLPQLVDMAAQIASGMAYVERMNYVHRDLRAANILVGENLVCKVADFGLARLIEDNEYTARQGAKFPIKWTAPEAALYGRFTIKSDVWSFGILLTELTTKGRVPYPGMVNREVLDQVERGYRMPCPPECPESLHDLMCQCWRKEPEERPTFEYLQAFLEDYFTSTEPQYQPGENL
Experimental: A mixture of a 10× kinase buffer (80 mM MOPS at pH 7.0, 2 mM EDTA and 100 mM Magnesium Chloride), ATP (5 μM final from a 10 mM stock), a Cdc2 peptide KVEKIGEGTYGVVYK (100 μM final from a 2.5 mM stock), γ-^33P ATP (10 μCl/μL stock) and water (for a total of 20 μL/well) was added to each well of a Streptavidin Flashplate.
Test compound in 100% DMSO (0.5 μL) was added to the appropriate wells. Diluted c-Src kinase (human) (Accession Number SWISS-PROT P12931) (Upstate Biotechnology, Lake Placid, N.Y.) (diluted in a buffer consisting of 20 mM MOPS at pH 7.0, 1 mM EDTA, β-mercaptoethanol (0.1%), Brij-35 (0.01%), glycerol (5%), and 1 mg/mL bovine serum albumin) (2.5 μL) was added to the wells to initiate the reactions. The reaction plates were incubated at 30° C. for 40 min. The reaction was terminated by the addition of a 3% phosphoric acid solution (5 μL). The reaction product (10 μL) was spotted onto a P30 filtermat and washed for 5 minutes in phosphoric acid (75 mM). The wash sequence was repeated two more times, followed with one final wash in methanol. The plates were then dried, sealed and read on the TopCount scintillation counter after adding 30 μL scintillation fluid.
(§1) The c-Src inhibition values were derived using the percent inhibition formula provided in Example 164 and are shown as percent in Table 2 at a test concentration of 2 μM. For those compounds with an IC50, the IC50 value in μM is shown in parentheses. For compounds with multiple test values, each value represents a separate assay result.

Lyn kinase (human) = molecular target: T3, Lyn kinase (human) (Homo sapiens, UniProt P07948); assay: Lyn Kinase Assay; settings: test concentration of 2 μM
T3 construct: purchased Upstate Biotechnology, Lake Placid, N.Y
T3 sequence (P07948 whole entry): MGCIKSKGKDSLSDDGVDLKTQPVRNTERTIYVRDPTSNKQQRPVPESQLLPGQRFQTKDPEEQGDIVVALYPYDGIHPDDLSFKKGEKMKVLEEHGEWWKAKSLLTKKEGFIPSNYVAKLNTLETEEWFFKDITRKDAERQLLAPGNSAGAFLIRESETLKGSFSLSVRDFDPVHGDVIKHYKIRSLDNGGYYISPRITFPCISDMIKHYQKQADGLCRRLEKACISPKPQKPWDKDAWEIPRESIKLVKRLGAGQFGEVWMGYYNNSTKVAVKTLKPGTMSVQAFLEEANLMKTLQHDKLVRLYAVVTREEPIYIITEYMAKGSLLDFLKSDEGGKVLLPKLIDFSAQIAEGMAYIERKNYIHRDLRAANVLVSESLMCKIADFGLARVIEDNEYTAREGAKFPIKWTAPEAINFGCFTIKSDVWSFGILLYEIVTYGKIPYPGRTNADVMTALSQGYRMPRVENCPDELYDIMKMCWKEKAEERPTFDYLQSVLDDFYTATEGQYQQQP
Experimental: A mixture of a 10× kinase buffer (500 mM MOPS at pH 7.5, 1 mM EGTA, 1 mM Sodium Vanadate, 1% β-mercaptoethanol and 100 mM Magnesium Acetate), ATP (5 μM final from a 10 mM stock), polyGluTyr (0.1 mg/mL final from a 1 mg/mL stock), γ-^33P ATP (10 μCl/μL stock) and water (for a total of 20 μL/well) was added to each well of a Streptavidin Flashplate.
Test compound in 100% DMSO (0.5 μL) was added to the appropriate wells. Diluted Lyn kinase (human)(Accession Number EMBL M16038) (Upstate Biotechnology, Lake Placid, N.Y.) (diluted in a buffer consisting of 50 mM Tris at pH 7.5, 0.1 mM EGTA, Sodium Vanadate (0.1 mM), β-mercaptoethanol (0.1%) and 1 mg/mL bovine serum albumin) (2.5 μL) was added to the wells to initiate the reactions.
The reaction plates were incubated at 30° C. for 40 min. The reaction was terminated by the addition of a 3% phosphoric acid solution (5 μL). The reaction product (10 μL) was spotted onto a P30 filtermat and washed for 5 minutes in phosphoric acid (75 mM). The wash sequence was repeated two more times, followed with one final wash in methanol. The plates were then dried, sealed and read on the TopCount scintillation counter after adding 30 μL scintillation fluid.
as §1, with “The Lyn” for “The c-Src”, “derived according to” for “derived using”, “the procedure described” for “the percent inhibition formula provided”, “Table 3” for “Table 2”

EGFR = molecular target: T4, EGFR (Homo sapiens, UniProt P00533); assay: EGFR Kinase Assay; settings: for inhibition at 2 µM: test concentration of 2 μM, compounds without an IC50, read-out: EGFR inhibition in percent; for pIC50: GST-EGFR, ATP 5 μM
T4 construct: The intracellular portion of EGFR started at nucleotide 2189 (corresponding to amino acid 667) and ended at the termination codon; made in house; host or cells: Sf9 insect cells (baculovirus)
T4 sequence (P00533 669-1210 limits assumed): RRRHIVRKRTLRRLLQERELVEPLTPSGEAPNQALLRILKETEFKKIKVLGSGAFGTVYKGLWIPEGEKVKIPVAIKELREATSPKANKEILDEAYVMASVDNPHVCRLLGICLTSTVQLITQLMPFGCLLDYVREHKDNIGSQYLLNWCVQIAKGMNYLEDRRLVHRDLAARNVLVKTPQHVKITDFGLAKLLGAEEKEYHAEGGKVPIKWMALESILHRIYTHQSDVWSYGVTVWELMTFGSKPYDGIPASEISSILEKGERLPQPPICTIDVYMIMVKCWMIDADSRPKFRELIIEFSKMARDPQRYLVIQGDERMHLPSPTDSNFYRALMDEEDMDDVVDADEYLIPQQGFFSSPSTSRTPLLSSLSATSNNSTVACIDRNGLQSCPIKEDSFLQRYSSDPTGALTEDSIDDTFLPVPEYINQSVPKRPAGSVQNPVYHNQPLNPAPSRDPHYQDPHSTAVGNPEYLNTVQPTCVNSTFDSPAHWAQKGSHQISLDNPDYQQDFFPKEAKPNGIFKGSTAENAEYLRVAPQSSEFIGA
Outline: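 Potency came from triplicate 16-point half-log titrations starting at 200 uM, with IC50 fitted from % inhibition against log concentration, or % inhibition at 2 μM otherwise. Reaction: Sf9-made GST–EGFR cytoplasmic region (aa 667 onward), biotin-polyGluTyr, 5 μM ATP with 33P tracer, pH 8.0 Tris/Mg/vanadate/DTT, 30 °C for 1 h; captured on streptavidin Flashplates and counted.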

T1 sequence (P04626 679-1255): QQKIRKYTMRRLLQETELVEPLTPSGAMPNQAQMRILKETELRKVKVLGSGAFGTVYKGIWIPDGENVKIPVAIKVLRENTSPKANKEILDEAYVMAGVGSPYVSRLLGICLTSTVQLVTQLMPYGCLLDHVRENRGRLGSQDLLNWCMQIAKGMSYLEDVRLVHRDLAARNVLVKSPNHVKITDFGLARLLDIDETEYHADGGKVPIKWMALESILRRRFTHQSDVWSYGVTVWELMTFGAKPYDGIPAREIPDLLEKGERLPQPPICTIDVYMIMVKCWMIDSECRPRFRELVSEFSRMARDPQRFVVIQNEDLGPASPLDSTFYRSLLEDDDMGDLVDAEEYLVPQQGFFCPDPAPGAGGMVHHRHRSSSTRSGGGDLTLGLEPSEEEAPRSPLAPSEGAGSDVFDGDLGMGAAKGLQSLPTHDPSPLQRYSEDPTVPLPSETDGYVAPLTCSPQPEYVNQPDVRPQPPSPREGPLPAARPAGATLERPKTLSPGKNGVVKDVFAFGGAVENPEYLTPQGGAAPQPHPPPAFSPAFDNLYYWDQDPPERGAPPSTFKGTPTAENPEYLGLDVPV

| Structure (SMILES) | pIC50 (HER-2) | inhibition at 2 µM (c-Src kinase (human)) [%] | inhibition at 2 µM (Lyn kinase (human)) [%] | inhibition at 2 µM (EGFR) [%] | inhibition at 1 µM (HER-2) [%] | pIC50 (EGFR) | % Inhibition (Lyn) (Lyn kinase (human); 2 µM) [%] |
| --- | --- | --- | --- | --- | --- | --- | --- |
| O=C(Nc1ccc(CN2CCOCC2)cc1)c1sc2ncnc3c2c1NC(=O)N3c1ccc(-c2ccc(Cl)cc2)cc1 [Cpd 140, 5-(4′-chloro-biphenyl-4-yl)-4-oxo-4,5-dihydro-3H-1-thia-3,5,6,8-tetraaza-acenaphthylene-2-carboxylic acid (4-morpholin-4-ylmethyl-phenyl)-amide] | < 4.00 | 25 | 43 | 20 | – | – | – |
| CC(C)(C)OC(=O)NCCCNC(=O)c1sc2ncnc3c2c1NC(=O)N3c1ccc2c(ccn2Cc2cccc(F)c2)c1 [Cpd 141, [3-({5-[1-(3-fluoro-benzyl)-1H-indol-5-yl]-4-oxo-4,5-dihydro-3H-1-thia-3,5,6,8-tetraaza-acenaphthylene-2-carbonyl}-amino)-propyl]-carbamic acid tert-butyl ester] | ~4.00 | 26 | 37 | – | – | – | – |
| O=C(Nc1ccc(CN2CCCCC2)cc1)c1sc2ncnc3c2c1NC(=O)N3c1cc(OCc2cccc(F)c2)c(Cl)cc1Cl [Cpd 57, 5-[2,4-dichloro-5-(3-fluoro-benzyloxy)-phenyl]-4-oxo-4,5-dihydro-3H-1-thia-3,5,6,8-tetraaza-acenaphthylene-2-carboxylic acid (4-piperidin-1-ylmethyl-phenyl)-amide] | – | -16 | 1 | 12 | -20 | – | – |
| O=C(Nc1ccc(CCN2CCCCC2)cc1)c1sc2ncnc3c2c1NC(=O)N3c1ccc(Oc2ccccc2)cc1 [Cpd 166, 4-oxo-5-(4-phenoxy-phenyl)-4,5-dihydro-3H-1-thia-3,5,6,8-tetraaza-acenaphthylene-2-carboxylic acid [4-(2-piperidin-1-yl-ethyl)-phenyl]-amide] | 6.77 | 22 | 51 | – | – | 7.68 | – |
| CN1CCN(Cc2ccc(NC(=O)c3sc4ncnc5c4c3NC(=O)N5c3cc(OCc4cccc(F)c4)c(Cl)cc3Cl)cc2)CC1 [Cpd 61, 5-[2,4-dichloro-5-(3-fluoro-benzyloxy)-phenyl]-4-oxo-4,5-dihydro-3H-1-thia-3,5,6,8-tetraaza-acenaphthylene-2-carboxylic acid [4-(4-methyl-piperazin-1-ylmethyl)-phenyl]-amide] | – | -2 | 30 | 9 | -11 | – | – |
| O=C(NCCCO)c1sc2ncnc3c2c1NC(=O)N3c1ccc(Oc2ccccc2)cc1 [Cpd 106, 4-oxo-5-(4-phenoxy-phenyl)-4,5-dihydro-3H-1-thia-3,5,6,8-tetraaza-acenaphthylene-2-carboxylic acid (3-hydroxy-propyl)-amide] | 6.11 | 30 | 27 | – | – | 7.38 | – |
| COc1cc(N2C(=O)Nc3c(C(=O)O)sc4ncnc2c34)c(Cl)cc1Cl [Cpd 41, 5-(2,4-dichloro-5-methoxy-phenyl)-4-oxo-4,5-dihydro-3H-1-thia-3,5,6,8-tetraaza-acenaphthylene-2-carboxylic acid] | – | 18 | 29 | 11 | -17 | – | – |
| COc1ccc(Cl)c(N2C(=O)Nc3c(C(=O)O)sc4ncnc2c34)c1 [Cpd 47, 5-(2-chloro-5-methoxy-phenyl)-4-oxo-4,5-dihydro-3H-1-thia-3,5,6,8-tetraaza-acenaphthylene-2-carboxylic acid] | – | 9 | 28 | 5 | -28 | – | – |
| NCCCNC(=O)c1sc2ncnc3c2c1NC(=O)N3c1ccc2c(ccn2Cc2cccc(F)c2)c1 [Cpd 142, 5-[1-(3-fluoro-benzyl)-1H-indol-5-yl]-4-oxo-4,5-dihydro-3H-1-thia-3,5,6,8-tetraaza-acenaphthylene-2-carboxylic acid (3-amino-propyl)-amide] | 6.42 | 10 | 39 | – | – | 7.96 | – |
| C[C@H](c1ccccc1)N1C(=O)Nc2c(C(=O)NC3CCN(C)CC3)sc3ncnc1c23 [Cpd 173, 4-oxo-5-[(1R)-1-phenyl-ethyl]-4,5-dihydro-3H-1-thia-3,5,6,8-tetraaza-acenaphthylene-2-carboxylic acid (1-methyl-piperidin-4-yl)-amide] | < 4.00 | -8 | -5 | -3 | – | – | – |
| O=C(Nc1ccc(CCN2CCCCC2)cc1)c1sc2ncnc3c2c1NC(=O)N3c1ccc(Oc2cccc(F)c2)cc1 [Cpd 132, 5-[4-(3-fluoro-phenoxy)-phenyl]-4-oxo-4,5-dihydro-3H-1-thia-3,5,6,8-tetraaza-acenaphthylene-2-carboxylic acid [4-(2-piperidin-1-yl-ethyl)-phenyl]-amide] | 6.31 | 32 | 33 | – | 76 | 7.82 | – |
| O=C(Nc1ccc(CCN2CCCCC2)cc1)c1sc2ncnc3c2c1NC(=O)N3c1ccc(Oc2ccccc2)c(F)c1 [Cpd 114, 5-(3-fluoro-4-phenoxy-phenyl)-4-oxo-4,5-dihydro-3H-1-thia-3,5,6,8-tetraaza-acenaphthylene-2-carboxylic acid [4-(2-piperidin-1-yl-ethyl)-phenyl]-amide] | 6.27 | – | 40 | – | 60 | 7.60 | 48.5 |
| COc1ccc(-c2sc3ncnc4c3c2NC(=O)N4c2ccc(F)c(Cl)c2)cc1OC [Cpd 9, 5-(3-chloro-4-fluoro-phenyl)-2-(3,4-dimethoxy-phenyl)-3H,5H-1-thia-3,5,6,8-tetraaza-acenaphthylen-4-one] | – | 26 | -7 | – | – | 5.99 | – |
| COc1ccc(NC(=O)c2sc3ncnc4c3c2NC(=O)N4c2ccc(Oc3ccccc3)cc2)cc1OC [Cpd 99, 4-oxo-5-(4-phenoxy-phenyl)-4,5-dihydro-3H-1-thia-3,5,6,8-tetraaza-acenaphthylene-2-carboxylic acid (3,4-dimethoxy-phenyl)-amide] | 6.04 | -9 | – | – | 60 | 7.57 | – |
| Cc1ccc(-n2nc(C(C)(C)C)cc2N2C(=O)Nc3c(C(=O)Nc4ccc(CN5CCOCC5)cc4)sc4ncnc2c34)cc1 [Cpd 76, 5-(5-tert-butyl-2-p-tolyl-2H-pyrazol-3-yl)-4-oxo-4,5-dihydro-3H-1-thia-3,5,6,8-tetraaza-acenaphthylene-2-carboxylic acid (4-morpholin-4-ylmethyl-phenyl)-amide] | – | 43 | – | 7 | -11 | – | – |
